Laboratory results reported in PMC7291858, “An Enhanced Variant Designed From DLP4 Cationic Peptide Against Staphylococcus aureus CVCC 546” (Frontiers in Microbiology, 2020).
Ends that are not written are not given here. Peptide text beside a SMILES is read from it.

Assays:
S. aureus CVCC 546 = assay: Potassium ion (K+) leakage; assay type: cell-based, Staphylococcus aureus; conditions: 1 × MIC, treated for 150 min, 0.9% saline, 10^8 CFU/mL, ICP, n = 3
Method: To further investigate the effects of peptides on membrane integrity, K^+ leakage determination was carried out as previously described ([Miao et al., 2016]). Briefly, S. aureus CVCC 546 cells were centrifuged, washed, and resuspended in 0.9% sterile saline. The cell suspension (10^8 CFU/mL) was treated with peptides at 1 × MIC. Cells untreated and treated with DLP4 or nisin were used as blank and positive controls. At time intervals of 30, 60, 90, 120, and 150 min, the suspensions were centrifuged at 12000 rpm for 5 min. The supernatants were then subjected to measurement by Agilent inductively coupled plasma optical emission (ICP-OES).

S. aureus ATCC 43300 = assay type: cell-based, Staphylococcus aureus; conditions: microtiter, serial 2-fold dilutions, 37°C, 16∼20 h, triplicate; – = no activity
Summary of the method: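 2-fold peptide dilution series, identical inoculum, 37°C, 16∼20 h. MIC = lowest conc. without visible growth. Vancomycin control; triplicate.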

[1] = test system: Staphylococcus aureus CVCC 546; assay: microbe, parasite or virus in culture; assay type: cell-based; conditions: Table 1; – = no activity
Method: The minimal inhibitory concentration (MIC) was evaluated by a microtiter plate assay ([Wiegand et al., 2008]). Serial 2-fold dilutions of test peptides were placed into a 96-well plate containing identical bacterial inoculum and incubated at 37°C for 16∼20 h. Vancomycin was used as antibiotic control. The MIC value was defined as the lowest peptide concentration where no visible growth occurred. All tests were made in triplicate.

Molecule	level of released K+ (S. aureus CVCC 546) [mg/L]	A1 (MIC against S. aureus ATCC 43300) (S. aureus ATCC 43300) [µg/mL]	MIC [1]
nisin (ITSISLCTPGCKTGALMGCNMKTATCHCSIHVSK; also: lantibiotic: thioether rings and dehydro residues not placed; UniProt P13068 24-57, looked up) [positive control in K+ leakage assay]	1.03	–	–
CC[C@H](C)[C@@H]1NC(=O)[C@H](C)NC(=O)[C@H](CCCNC(=N)N)NC(=O)[C@H](CCCCN)NC(=O)[C@H](CC(=O)O)NC(=O)[C@@H]2CSSC[C@H](NC(=O)[C@@H](NC(=O)[C@H](C)N)[C@@H](C)O)C(=O)N[C@@H](CC(=O)O)C(=O)N[C@@H](CC(C)C)C(=O)N[C@@H](CC(C)C)C(=O)N[C@@H](CO)C(=O)N3CCC[C@H]3C(=O)N[C@@H](Cc3ccccc3)C(=O)N[C@@H](CCCCN)C(=O)N[C@@H](C(C)C)C(=O)NCC(=O)N[C@@H](Cc3c[nH]cn3)C(=O)N[C@@H](C)C(=O)N[C@@H](C)C(=O)N[C@H]3CSSC[C@H](NC1=O)C(=O)N[C@@H](CC(N)=O)C(=O)N[C@H](C(=O)N[C@@H](CCCNC(=N)N)C(=O)N[C@@H](CCCCN)C(=O)O)CSSC[C@H](NC(=O)[C@H](Cc1c[nH]cn1)NC(=O)[C@H](C)NC(=O)[C@H](C)NC3=O)C(=O)N[C@@H]([C@@H](C)CC)C(=O)N[C@@H](C)C(=O)N[C@@H](CCCNC(=N)N)C(=O)NCC(=O)N[C@@H](CCCCN)C(=O)N[C@@H](CCCNC(=N)N)C(=O)NCC(=O)NCC(=O)N[C@@H](Cc1c[nH]c3ccccc13)C(=O)N2 [ID30] (HELM PEPTIDE1{A.T.C.D.L.L.S.P.F.K.V.G.H.A.A.C.A.A.H.C.I.A.R.G.K.R.G.G.W.C.D.K.R.A.I.C.N.C.R.K}$PEPTIDE1,PEPTIDE1,3:R3-30:R3|PEPTIDE1,PEPTIDE1,16:R3-36:R3|PEPTIDE1,PEPTIDE1,20:R3-38:R3$$$V2.0; N-terminus and C-terminus assumed; bridges inferred)	–	16	32
CC[C@H](C)[C@@H]1NC(=O)[C@@H]2CSSC[C@@H](C(=O)N[C@@H](CCCNC(=N)N)C(=O)N[C@@H](CCCCN)C(=O)O)NC(=O)[C@H](CC(N)=O)NC(=O)[C@@H]3CSSC[C@H](NC(=O)[C@H](C)NC(=O)[C@H](C)NC(=O)[C@H](Cc4c[nH]cn4)NC(=O)CNC(=O)[C@H](C(C)C)NC(=O)[C@H](CCCCN)NC(=O)[C@H](Cc4ccccc4)NC(=O)[C@@H]4CCCN4C(=O)[C@H](CO)NC(=O)[C@H](CC(C)C)NC(=O)[C@H](CC(C)C)NC(=O)[C@H](CC(=O)O)NC(=O)[C@@H](NC(=O)[C@@H](NC(=O)[C@H](C)N)[C@@H](C)O)CSSC[C@H](NC(=O)[C@H](Cc4c[nH]c5ccccc45)NC(=O)CNC(=O)CNC(=O)[C@H](CCCNC(=N)N)NC(=O)[C@H](CCCCN)NC(=O)CNC(=O)[C@H](CCCNC(=N)N)NC(=O)[C@H](C)NC1=O)C(=O)N[C@@H](CC(=O)O)C(=O)N[C@@H](CCCCN)C(=O)N[C@@H](CCCNC(=N)N)C(=O)N[C@@H](C)C(=O)N[C@@H](C(C)C)C(=O)N3)C(=O)N[C@@H](C)C(=O)N[C@@H](CC(C)C)C(=O)N[C@@H](Cc1c[nH]cn1)C(=O)N2 [ID27] (HELM PEPTIDE1{A.T.C.D.L.L.S.P.F.K.V.G.H.A.A.C.A.L.H.C.I.A.R.G.K.R.G.G.W.C.D.K.R.A.V.C.N.C.R.K}$PEPTIDE1,PEPTIDE1,3:R3-30:R3|PEPTIDE1,PEPTIDE1,16:R3-36:R3|PEPTIDE1,PEPTIDE1,20:R3-38:R3$$$V2.0; N-terminus and C-terminus assumed; bridges inferred)	–	8	8
CC[C@H](C)[C@@H]1NC(=O)[C@@H]2CSSC[C@@H](C(=O)N[C@@H](CCCNC(=N)N)C(=O)N[C@@H](CCCCN)C(=O)O)NC(=O)[C@H](CC(N)=O)NC(=O)[C@@H]3CSSC[C@H](NC(=O)[C@H](C)NC(=O)[C@H](C)NC(=O)[C@H](Cc4c[nH]cn4)NC(=O)CNC(=O)[C@H](C(C)C)NC(=O)CNC(=O)[C@H](Cc4ccccc4)NC(=O)[C@@H]4CCCN4C(=O)[C@H](CO)NC(=O)[C@H](CC(C)C)NC(=O)[C@H](CC(C)C)NC(=O)[C@H](CC(=O)O)NC(=O)[C@@H](NC(=O)[C@@H](NC(=O)[C@H](C)N)[C@@H](C)O)CSSC[C@H](NC(=O)[C@H](Cc4c[nH]c5ccccc45)NC(=O)CNC(=O)CNC(=O)[C@H](CCCNC(=N)N)NC(=O)[C@H](CCCCN)NC(=O)CNC(=O)[C@H](CCCNC(=N)N)NC(=O)[C@H](C)NC1=O)C(=O)N[C@@H](CC(=O)O)C(=O)NCC(=O)N[C@@H](CCCNC(=N)N)C(=O)N[C@@H](C)C(=O)N[C@@H](C(C)C)C(=O)N3)C(=O)N[C@@H](C)C(=O)N[C@@H](C)C(=O)N[C@@H](Cc1c[nH]cn1)C(=O)N2 [ID16] (HELM PEPTIDE1{A.T.C.D.L.L.S.P.F.G.V.G.H.A.A.C.A.A.H.C.I.A.R.G.K.R.G.G.W.C.D.G.R.A.V.C.N.C.R.K}$PEPTIDE1,PEPTIDE1,3:R3-30:R3|PEPTIDE1,PEPTIDE1,16:R3-36:R3|PEPTIDE1,PEPTIDE1,20:R3-38:R3$$$V2.0; N-terminus and C-terminus assumed; bridges inferred)	–	8	16
